Test results taken from PubChem BioAssay AID1963831 (Molecular Pharmacology Branch, DTP, NCI, 2024).

Test system: 889142-216-R-J1-PDC complex spheroid viability
Test: Anticancer human tumor 889142-216-R-J1-PDC patient-derived bladder carcinoma cell line growth inhibition [POLQ]
Conditions: for IC50: curve of first compound; for viability, T/C: stronger effect = lower value
How it was run: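 Three-cell-type spheroids modelling solid tumor plus stroma served as the readout system; POL inhibitors were tested individually and in combination, concentration ranges set by clinical Cmax where known.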
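Further: spheroids exposed to compounds for seven days.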
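Wherever viability, T/C is given: 100% = DMSO vehicle control viability.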

SMILES: CC(C)n1c(=O)n(C)c2cnc3cc(F)c(-c4ccc(OCCCN5CCCCC5)nc4)cc3c21 + Cc1cccc(N(C)C(=O)C2C(O)CCN2c2nc(C)cc(C(F)(F)F)c2C#N)c1
- IC50 (second compound 0.0316 µM): 3.93 µM
- IC50 (second compound 0.1 µM): 3.63 µM
- IC50 (second compound 0.316 µM): 3.68 µM
- IC50 (second compound 1 µM): 3.73 µM
- IC50 (second compound 3.16 µM): 4.43 µM
- IC50 (second compound 10 µM): 2.19 µM
- viability, T/C (second compound 0.0316 µM, first compound 0.0316 µM): 83.1%
- viability, T/C (second compound 0.0316 µM, first compound 0.1 µM): 75.4%
- viability, T/C (second compound 0.0316 µM, first compound 0.316 µM): 89.5%
- viability, T/C (second compound 0.0316 µM, first compound 1 µM): 84.4%
- viability, T/C (second compound 0.0316 µM, first compound 3.16 µM): 58.1%
- viability, T/C (second compound 0.0316 µM, first compound 10 µM): 14.7%
- viability, T/C (second compound 0.1 µM, first compound 0.0316 µM): 87.9%
- viability, T/C (second compound 0.1 µM, first compound 0.1 µM): 78.6%
- viability, T/C (second compound 0.1 µM, first compound 0.316 µM): 77%
- viability, T/C (second compound 0.1 µM, first compound 1 µM): 66.8%
- viability, T/C (second compound 0.1 µM, first compound 3.16 µM): 59.3%
- viability, T/C (second compound 0.1 µM, first compound 10 µM): 15.5%
- viability, T/C (second compound 0.316 µM, first compound 0.0316 µM): 88.9%
- viability, T/C (second compound 0.316 µM, first compound 0.1 µM): 82.6%
- viability, T/C (second compound 0.316 µM, first compound 0.316 µM): 70.3%
- viability, T/C (second compound 0.316 µM, first compound 1 µM): 81.6%
- viability, T/C (second compound 0.316 µM, first compound 3.16 µM): 55.6%
- viability, T/C (second compound 0.316 µM, first compound 10 µM): 12.8%
- viability, T/C (second compound 1 µM, first compound 0.0316 µM): 75.5%
- viability, T/C (second compound 1 µM, first compound 0.1 µM): 97.5%
- viability, T/C (second compound 1 µM, first compound 0.316 µM): 101%
- viability, T/C (second compound 1 µM, first compound 1 µM): 75.9%
- viability, T/C (second compound 1 µM, first compound 3.16 µM): 57%
- viability, T/C (second compound 1 µM, first compound 10 µM): 15.5%
- viability, T/C (second compound 3.16 µM, first compound 0.0316 µM): 80.6%
- viability, T/C (second compound 3.16 µM, first compound 0.1 µM): 87.9%
- viability, T/C (second compound 3.16 µM, first compound 0.316 µM): 77.5%
- viability, T/C (second compound 3.16 µM, first compound 1 µM): 98.9%
- viability, T/C (second compound 3.16 µM, first compound 3.16 µM): 65.5%
- viability, T/C (second compound 3.16 µM, first compound 10 µM): 12.7%
- viability, T/C (second compound 10 µM, first compound 0.0316 µM): 70%
- viability, T/C (second compound 10 µM, first compound 0.1 µM): 66.3%
- viability, T/C (second compound 10 µM, first compound 0.316 µM): 68.5%
- viability, T/C (second compound 10 µM, first compound 1 µM): 52.7%
- viability, T/C (second compound 10 µM, first compound 3.16 µM): 49.5%
- viability, T/C (second compound 10 µM, first compound 10 µM): 12%
